# According to US20260262643A1, “HERBICIDAL BENZOXAZINES” (FMC CORPORATION, priority 2022, published 2026):
# Assays:
# horseweed = test: Test C postemergence; type: in vivo, Erigeron canadensis; conditions: 10 days, 0 to 100 scale (0 no effect, 100 complete control)
# Summary of the method: (§1)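 Greenhouse herbicide screen, 10-day duration. Test chemicals in solvent/surfactant blend were sprayed onto soil at sowing (pre) or onto 2–10 cm seedlings at one to two leaves (post); injury scored visually against controls, 0 no effect to 100 complete control.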
# blackgrass [1] = test: Test C postemergence; type: in vivo, Alopecurus myosuroides; conditions: 10 days, 0 to 100 scale (0 no effect, 100 complete control)
# Summary of the method: as §1
# barnyardgrass [2] = test: Test C postemergence; type: in vivo, Echinochloa crusgalli; conditions: 10 days, 0 to 100 scale (0 no effect, 100 complete control)
# Summary of the method: as §1
# ducksalad = test: Test D flooded paddy test; type: in vivo, Heteranthera limosa; conditions: 250 g ai/ha, applied to paddy water, visual rating after 13 to 14 days, scale 0 to 100 (0 no effect, 100 complete control)
# Summary of the method: (§2)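 2-leaf plants; flood 3 cm above soil; compound dosed into paddy water; greenhouse 13–14 d; visual rating vs controls, 0–100 (100 = complete control); dash = not tested.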
# sedge, umbrella = test: Test D flooded paddy test; type: in vivo, Cyperus difformis; conditions: 250 g ai/ha, applied to paddy water, visual rating after 13 to 14 days, scale 0 to 100 (0 no effect, 100 complete control)
# Summary of the method: as §2
# ryegrass, Italian [3] = test: Test C postemergence; type: in vivo, Lolium multiflorum; conditions: 10 days, 0 to 100 scale (0 no effect, 100 complete control)
# Summary of the method: as §1
# corn [4] = test: Test C preemergence; type: in vivo, Zea mays; conditions: preemergence, 0 to 100 scale (0 no effect, 100 complete control)
# Summary of the method: as §1
# ragweed [5] = test: Test C postemergence; type: in vivo, Ambrosia artemisiifolia; conditions: 10 days, 0 to 100 scale (0 no effect, 100 complete control)
# Summary of the method: as §1
# barnyardgrass [6] = test: Test D flooded paddy test; type: in vivo, Echinochloa crus-galli; conditions: 250 g ai/ha, applied to paddy water, visual rating after 13 to 14 days, scale 0 to 100 (0 no effect, 100 complete control)
# Summary of the method: as §2
# oat, wild [7] = test: Test C preemergence; type: in vivo, Avena fatua; conditions: preemergence, 0 to 100 scale (0 no effect, 100 complete control)
# Summary of the method: as §1
# pigweed, palmer [8] = test: Test C preemergence; type: in vivo, Amaranthus palmeri; conditions: preemergence, 0 to 100 scale (0 no effect, 100 complete control)
# Summary of the method: as §1
# wheat [9] = test: Test C preemergence; type: in vivo, Triticum aestivum; conditions: preemergence, 0 to 100 scale (0 no effect, 100 complete control)
# Summary of the method: as §1
# wheat [10] = test: Test C postemergence; type: in vivo, Triticum aestivum; conditions: 10 days, 0 to 100 scale (0 no effect, 100 complete control)
# Summary of the method: as §1
# kochia [11] = test: Test C preemergence; type: in vivo, Bassia scoparia; conditions: preemergence, 0 to 100 scale (0 no effect, 100 complete control)
# Summary of the method: as §1
# ragweed [12] = test: Test C preemergence; type: in vivo, Ambrosia artemisiifolia; conditions: preemergence, 0 to 100 scale (0 no effect, 100 complete control)
# Summary of the method: as §1
# green foxtail [13] = test: Test C postemergence; type: in vivo, Setaria viridis; conditions: 10 days, 0 to 100 scale (0 no effect, 100 complete control)
# Summary of the method: as §1
# corn [14] = test: Test C postemergence; type: in vivo, Zea mays; conditions: 10 days, 0 to 100 scale (0 no effect, 100 complete control)
# Summary of the method: as §1
# blackgrass [15] = test: Test C preemergence; type: in vivo, Alopecurus myosuroides; conditions: preemergence, 0 to 100 scale (0 no effect, 100 complete control)
# Summary of the method: as §1
# ryegrass, Italian [16] = test: Test C preemergence; type: in vivo, Lolium multiflorum; conditions: preemergence, 0 to 100 scale (0 no effect, 100 complete control)
# Summary of the method: as §1
# oat, wild [17] = test: Test C postemergence; type: in vivo, Avena fatua; conditions: 10 days, 0 to 100 scale (0 no effect, 100 complete control)
# Summary of the method: as §1
# barnyardgrass [18] = test: Test C preemergence; type: in vivo, Echinochloa crusgalli; conditions: preemergence, 0 to 100 scale (0 no effect, 100 complete control)
# Summary of the method: as §1
# galium = test: Test C postemergence; type: in vivo, Galium aparine; conditions: 10 days, 0 to 100 scale (0 no effect, 100 complete control)
# Summary of the method: as §1
# pigweed, palmer [19] = test: Test C postemergence; type: in vivo, Amaranthus palmeri; conditions: 10 days, 0 to 100 scale (0 no effect, 100 complete control)
# Summary of the method: as §1
# rice = test: Test D flooded paddy test; type: in vivo, Oryza sativa; conditions: 250 g ai/ha, applied to paddy water, visual rating after 13 to 14 days, scale 0 to 100 (0 no effect, 100 complete control)
# Summary of the method: as §2
# soybean [20] = test: Test C preemergence; type: in vivo, Glycine max; conditions: preemergence, 0 to 100 scale (0 no effect, 100 complete control)
# Summary of the method: as §1
# kochia [21] = test: Test C postemergence; type: in vivo, Bassia scoparia; conditions: 10 days, 0 to 100 scale (0 no effect, 100 complete control)
# Summary of the method: as §1
# soybean [22] = test: Test C postemergence; type: in vivo, Glycine max; conditions: 10 days, 0 to 100 scale (0 no effect, 100 complete control)
# Summary of the method: as §1
# green foxtail [23] = test: Test C preemergence; type: in vivo, Setaria viridis; conditions: preemergence, 0 to 100 scale (0 no effect, 100 complete control)
# Summary of the method: as §1
smiles,measurement,setting,value
CC(C)Oc1ncn(-c2cccc(C(=O)N3C[C@H](C)Oc4c(Cl)cccc43)c2)n1 [Compound 312],"Plant response rating, Horseweed","horseweed; 500 g ai/ha, postemergence",0
same,"Plant response rating, Horseweed","horseweed; Postemergence, 125 g ai/ha",0
same,"Plant response rating, Blackgrass","blackgrass [1]; 500 g ai/ha, postemergence",40
same,"Plant response rating, Blackgrass","blackgrass [1]; Postemergence, 125 g ai/ha",0
same,"Plant response rating, Barnyardgrass","barnyardgrass [2]; 500 g ai/ha, postemergence",10
same,"Plant response rating, Barnyardgrass","barnyardgrass [2]; Postemergence, 125 g ai/ha",10
same,"Plant response rating, Ducksalad (Flood)",ducksalad,0
same,"Plant response rating, Sedge, Umbrella (Flood)","sedge, umbrella",0
same,"Plant response rating, Ryegrass, Italian","ryegrass, Italian [3]; 500 g ai/ha, postemergence",30
same,"Plant response rating, Ryegrass, Italian","ryegrass, Italian [3]; Postemergence, 125 g ai/ha",30
same,Corn plant response rating,corn [4]; 500 g ai/ha,10
same,Corn plant response rating,"corn [4]; Test C, 125 g ai/ha",0
same,"Plant response rating, Ragweed","ragweed [5]; 500 g ai/ha, postemergence",40
same,"Plant response rating, Ragweed","ragweed [5]; Postemergence, 125 g ai/ha",0
same,"Plant response rating, Barnyardgrass (Flood)",barnyardgrass [6],0
same,"Oat, Wild plant response rating","oat, wild [7]; 500 g ai/ha",70
same,"Oat, Wild plant response rating","oat, wild [7]; Test C, 125 g ai/ha",0
same,"Pigweed, Palmer plant response rating","pigweed, palmer [8]; 500 g ai/ha",70
same,"Pigweed, Palmer plant response rating","pigweed, palmer [8]; Test C, 125 g ai/ha",20
same,Wheat plant response rating,wheat [9]; 500 g ai/ha,10
same,Wheat plant response rating,"wheat [9]; Test C, 125 g ai/ha",0
same,"Plant response rating, Wheat","wheat [10]; 500 g ai/ha, postemergence",10
same,"Plant response rating, Wheat","wheat [10]; Postemergence, 125 g ai/ha",10
same,Kochia plant response rating,kochia [11]; 500 g ai/ha,20
same,Kochia plant response rating,"kochia [11]; Test C, 125 g ai/ha",0
same,Ragweed plant response rating,ragweed [12]; 500 g ai/ha,0
same,Ragweed plant response rating,"ragweed [12]; Test C, 125 g ai/ha",0
same,"Plant response rating, Foxtail, Green","green foxtail [13]; 500 g ai/ha, postemergence",20
same,"Plant response rating, Foxtail, Green","green foxtail [13]; Postemergence, 125 g ai/ha",0
same,"Plant response rating, Corn","corn [14]; 500 g ai/ha, postemergence",10
same,"Plant response rating, Corn","corn [14]; Postemergence, 125 g ai/ha",10
same,Blackgrass plant response rating,blackgrass [15]; 500 g ai/ha,80
same,Blackgrass plant response rating,"blackgrass [15]; Test C, 125 g ai/ha",50
same,"Ryegrass, Italian plant response rating","ryegrass, Italian [16]; 500 g ai/ha",80
same,"Ryegrass, Italian plant response rating","ryegrass, Italian [16]; Test C, 125 g ai/ha",70
same,"Plant response rating, Oat, Wild","oat, wild [17]; 500 g ai/ha, postemergence",0
same,"Plant response rating, Oat, Wild","oat, wild [17]; Postemergence, 125 g ai/ha",0
same,Barnyardgrass plant response rating,barnyardgrass [18]; 500 g ai/ha,40
same,Barnyardgrass plant response rating,"barnyardgrass [18]; Test C, 125 g ai/ha",0
same,"Plant response rating, Galium","galium; 500 g ai/ha, postemergence",80
same,"Plant response rating, Galium","galium; Postemergence, 125 g ai/ha",60
same,"Plant response rating, Pigweed, Palmer","pigweed, palmer [19]; 500 g ai/ha, postemergence",50
same,"Plant response rating, Pigweed, Palmer","pigweed, palmer [19]; Postemergence, 125 g ai/ha",10
same,"Plant response rating, Rice (Flood)",rice,0
same,Soybean plant response rating,soybean [20]; 500 g ai/ha,10
same,Soybean plant response rating,"soybean [20]; Test C, 125 g ai/ha",0
same,"Plant response rating, Kochia","kochia [21]; 500 g ai/ha, postemergence",80
same,"Plant response rating, Kochia","kochia [21]; Postemergence, 125 g ai/ha",20
same,"Plant response rating, Soybean","soybean [22]; 500 g ai/ha, postemergence",100
same,"Plant response rating, Soybean","soybean [22]; Postemergence, 125 g ai/ha",80
same,"Foxtail, Green plant response rating",green foxtail [23]; 500 g ai/ha,90
same,"Foxtail, Green plant response rating","green foxtail [23]; Test C, 125 g ai/ha",80
